Experimental data taken from US8987195B2 (priority 2012, dated 2015).
Where two headings read alike, the source gives them in different places.

Key:
HCV genotype 1b replicon = assay: HCV replicon assay, genotype 1b replicon EC50; type: cell-based, Hepatitis C virus; settings: genotype 1b replicon, read-out: EC50 [gt-1b]
Procedure, shortened: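 Cells harbouring a stable replicon are grown under G418 selection, then plated with test compound in G418-free medium for 24-48 hours. After washing and lysis, RNA or luciferase signal is measured and expressed as percent of DMSO control to give EC50.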

[1] = biological target: HCV NS3/4A protease genotype 1b (Hepatitis C virus genotype 1b, UniProt P26663); assay: HCV NS3/4A protease time-resolved fluorescence (TRF) assay, Ki against genotype 1b; type: biochemical; settings: IC50 [gt-1b] (nM), NS3/4A genotype 1b, enzyme 0.2 nM
Procedure, shortened: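 NS3/4A enzyme was preincubated 30 min with inhibitor in 50 mM HEPES pH 7.5, 150 mM NaCl, 15% glycerol, 0.15% Triton X-100, 10 mM DTT, 0.1% PEG 8000; 25 nM europium TRF peptide substrate added, 2.5 h at room temperature. Enzyme: 0.2 nM (1b), 0.4 nM (A156T), 0.025 nM (3a). Ki from IC50 via Cheng-Prusoff.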

Row | Compound | EC50 (HCV genotype 1b replicon; Hepatitis C virus, K+ salt) [nM] | IC50 ([1]; K+ salt) [nM] | EC50 (HCV genotype 1b replicon; Hepatitis C virus) [nM] | IC50 [1] [nM] | EC50 (HCV genotype 1b replicon) [nM]
1 | Cc1nc2ccc(Cl)cc2c2c1O[C@]1(CC2)C[C@H]2C(=O)N[C@]3(C(=O)NS(=O)(=O)C4(C)CC4)C[C@H]3/C=C\CCCCC[C@H](NC(=O)OC3CCC3)C(=O)N2C1 [Example 185, cyclobutyl [(2R,6S,12Z,13aS,14aR,16aS)-9′-chloro-5′-methyl-14a-{[(1-methylcyclopropyl)sulfonyl]carbamoyl}-5,16-dioxo-1,1′,2′,5,6,7,8,9,10,11,13a,14,14a,15,16,16a-hexadecahydrospiro[cyclopropa[e]pyrrolo[1,2-a][1,4]diazacyclopentadecine-2,3′-pyrano[2,3-c]quinolin]-6-yl]carbamate] | 4.14 | 0.005 |  |  | 
2 | CC1(C)CCCC1OC(=O)N[C@H]1CCCCC/C=C\[C@@H]2C[C@@]2(C(=O)NS(=O)(=O)C2(C)CC2)NC(=O)[C@@H]2C[C@]3(CCc4c(c(C5CC5)nc5c(F)cccc45)O3)CN2C1=O (stereo partly drawn) [Example 187, 2,2-dimethylcyclopentyl [(2R,6S,12Z,13aS,14aR,16aS)-5′-cyclopropyl-7′-fluoro-14a-{[(1-methylcyclopropyl)sulfonyl]carbamoyl}-5,16-dioxo-1,1′,2′,5,6,7,8,9,10,11,13a,14,14a,15,16,16a-hexadecahydrospiro[cyclopropa[e]pyrrolo[1,2-a][1,4]diazacyclopentadecine-2,3′-pyrano[2,3-c]quinolin]-6-yl]carbamate] |  |  | 8.33 | 0.023 | 
3 | Cc1nc2cc(F)c(F)cc2c2c1O[C@]1(CC2)C[C@H]2C(=O)N[C@]3(C(=O)NS(=O)(=O)C4(C)CC4)C[C@H]3/C=C\CCCCC[C@H](NC(=O)OC(C)(C)C)C(=O)N2C1 [Example 188, tert-butyl [(2R,6S,12Z,13aS,14aR,16aS)-8′,9′-difluoro-5′-methyl-14a-{[(1-methylcyclopropyl)sulfonyl]carbamoyl}-5,16-dioxo-1,1′,2′,5,6,7,8,9,10,11,13a,14,14a,15,16,16a-hexadecahydrospiro[cyclopropa[e]pyrrolo[1,2-a][1,4]diazacyclopentadecine-2,3′-pyrano[2,3-c]quinolin]-6-yl]carbamate] |  |  | 3.85 | 0.006 | 
4 | Cc1nc2ccc(Cl)cc2c2c1O[C@]1(CC2)C[C@H]2C(=O)N[C@]3(C(=O)NS(=O)(=O)C4(C)CC4)C[C@H]3/C=C\CCCCC[C@H](NC(=O)OC3CCCCC3)C(=O)N2C1 [Example 190, cyclohexyl [(2R,6S,12Z,13aS,14aR,16aS)-9′-chloro-5′-methyl-14a-{[(1-methylcyclopropyl)sulfonyl]carbamoyl}-5,16-dioxo-1,1′,2′,5,6,7,8,9,10,11,13a,14,14a,15,16,16a-hexadecahydrospiro[cyclopropa[e]pyrrolo[1,2-a][1,4]diazacyclopentadecine-2,3′-pyrano[2,3-c]quinolin]-6-yl]carbamate] | 13.2 | 0.009 |  |  | 
5 | CC1(S(=O)(=O)NC(=O)[C@@]23C[C@H]2/C=C\CCCCC[C@H](NC(=O)OC2(C4CC4)CC2)C(=O)N2C[C@@]4(CCc5c(c(C6CC6)nc6c(F)cccc56)O4)C[C@H]2C(=O)N3)CC1 [Example 191, 1,1′-bi(cyclopropyl)-1-yl [(2R,6S,12Z,13aS,14aR,16aS)-5′-cyclopropyl-7′-fluoro-14a-{[(1-methylcyclopropyl)sulfonyl]carbamoyl}-5,16-dioxo-1,1′,2′,5,6,7,8,9,10,11,13a,14,14a,15,16,16a-hexadecahydrospiro[cyclopropa[e]pyrrolo[1,2-a][1,4]diazacyclopentadecine-2,3′-pyrano[2,3-c]quinolin]-6-yl]carbamate] |  |  | 3.59 | 0.012 | 
6 | CC(C)(C)COC(=O)N[C@H]1CCCCC/C=C\[C@@H]2C[C@@]2(C(=O)NS(=O)(=O)C2(C)CC2)NC(=O)[C@@H]2C[C@]3(CCc4c(c(C5CC5)nc5c(F)cccc45)O3)CN2C1=O [Example 192, 2,2-dimethylpropyl [(2R,6S,12Z,13aS,14aR,16aS)-5′-cyclopropyl-7′-fluoro-14a-{[(1-methylcyclopropyl)sulfonyl]carbamoyl}-5,16-dioxo-1,1′,2′,5,6,7,8,9,10,11,13a,14,14a,15,16,16a-hexadecahydrospiro[cyclopropa[e]pyrrolo[1,2-a][1,4]diazacyclopentadecine-2,3′-pyrano[2,3-c]quinolin]-6-yl]carbamate] |  |  | 9.61 | 0.019 | 
7 | Cc1nc2cc(F)c(F)cc2c2c1O[C@]1(CC2)C[C@H]2C(=O)N[C@]3(C(=O)NS(=O)(=O)C4(C)CC4)C[C@H]3/C=C\CCCCC[C@H](NC(=O)OC3CCCC3)C(=O)N2C1 [Example 193, cyclopentyl [(2R,6S,12Z,13aS,14aR,16aS)-8′,9′-difluoro-5′-methyl-14a-{[(1-methylcyclopropyl)sulfonyl]carbamoyl}-5,16-dioxo-1,1′,2′,5,6,7,8,9,10,11,13a,14,14a,15,16,16a-hexadecahydrospiro[cyclopropa[e]pyrrolo[1,2-a][1,4]diazacyclopentadecine-2,3′-pyrano[2,3-c]quinolin]-6-yl]carbamate] | 31.1 | 0.007 |  |  | 
8 | Cc1nc2ccccc2c2c1O[C@]1(CC2)C[C@H]2C(=O)N[C@]3(C(=O)NS(=O)(=O)C4(C)CC4)C[C@H]3/C=C\CCCCC[C@H](NC(=O)OC3CCC(F)(F)CC3)C(=O)N2C1 [Example 196, 4,4-difluorocyclohexyl [(2R,6S,12Z,13aS,14aR,16aS)-5′-methyl-14a-{[(1-methylcyclopropyl)sulfonyl]carbamoyl}-5,16-dioxo-1,1′,2′,5,6,7,8,9,10,11,13a,14,14a,15,16,16a-hexadecahydrospiro[cyclopropa[e]pyrrolo[1,2-a][1,4]diazacyclopentadecine-2,3′-pyrano[2,3-c]quinolin]-6-yl]carbamate] |  |  | 5.53 | 0.003 | 
9 | Cc1nc2ccccc2c2c1O[C@]1(CC2)C[C@H]2C(=O)N[C@]3(C(=O)NS(=O)(=O)C4(C)CC4)C[C@H]3/C=C\CCCCC[C@H](NC(=O)OC(C)C(F)(F)F)C(=O)N2C1 (stereo partly drawn) [Example 197, 1,1,1-trifluoropropan-2-yl [(2R,6S,12Z,13aS,14aR,16aS)-5′-methyl-14a-{[(1-methylcyclopropyl)sulfonyl]carbamoyl}-5,16-dioxo-1,1′,2′,5,6,7,8,9,10,11,13a,14,14a,15,16,16a-hexadecahydrospiro[cyclopropa[e]pyrrolo[1,2-a][1,4]diazacyclopentadecine-2,3′-pyrano[2,3-c]quinolin]-6-yl]carbamate] |  |  |  | 0.004 | 9.87
10 | COc1ccc2nc(C)c3c(c2c1)CC[C@]1(C[C@H]2C(=O)N[C@]4(C(=O)NS(=O)(=O)C5(C)CC5)C[C@H]4/C=C\CCCCC[C@H](NC(=O)OC4CCCC4C)C(=O)N2C1)O3 (stereo partly drawn) [Example 200, 2-methylcyclopentyl [(2R,6S,12Z,13aS,14aR,16aS)-9′-methoxy-5′-methyl-14a-{[(1-methylcyclopropyl)sulfonyl]carbamoyl}-5,16-dioxo-1,1′,2′,5,6,7,8,9,10,11,13a,14,14a,15,16,16a-hexadecahydrospiro[cyclopropa[e]pyrrolo[1,2-a][1,4]diazacyclopentadecine-2,3′-pyrano[2,3-c]quinolin]-6-yl]carbamate] | 0.369 | 0.005 |  |  | 
